target: T1, human NaV1.8 (Homo sapiens, UniProt Q9Y5Y9); test: Electrophysiology: voltage-clamp recordings (whole-cell automated patch clamp, Qube384); type: cell-based; settings: HEK-NaV1.8 with b3 recombinant cell line, ambient room temperature, read-out: Potency category (human NaV1.8 IC50)
T1 construct: expressed in transfected cells; host or cells: HEK
Experimental: The following NaV1.8 recombinant cell line was used for recordings: HEK-NaV1.8 (NM_006514.1) with b3 (NM_018400.3).
Sodium currents were measured using the patch clamp technique in the whole-cell configuration using the Qube384 (Sophion A/S, Copenhagen, Denmark) automated voltage clamp platform. "Multi hole" plates were used for the cell line expressing NaV1.8 while "single hole" plates were used for the recombinant cell lines expressing the other subtypes. Appropriate filters (for minimum seal resistance and minimum current size) and series resistance compensation (for high quality sodium channel recordings) were applied. Data was collected at ambient room temperature.
The recording […] solution contained (in mM): NaCl 145 mM, KCl 4 mM, CaCl2 2 mM, MgCl2 1 mM, HEPES 10 mM, Glucose 10 mM, pH 7.4 (NaOH). The […] recording solution contained (in mM): CsF 120 mM, CsCl 20 mM, NaCl 10 mM, EGTA 10 mM, HEPES 10 mM, pH 7.2 (CsOH). Currents were recorded at 25 kHz sampling frequency and filtered at 5 kHz. Series resistance compensation was applied at 65%.
Vehicle (VEH) is the control condition where cells are exposed to 0.3 % DMSO without compound. All runs include VEH controls being exposed to the same voltage protocols to assess non-compound related phenomena such as run down and then used to isolate compound dependent effects on currents.
To check for state-dependence inhibition, the following voltage-sequence was applied every 20 seconds: From a resting membrane potential of-120 mV, the first test pulse (P1; 20 ms to -10 mV) was applied to check for channels in the Resting State followed by a brief recovery (20 ms to -120 mV), then holding the membrane voltage to V1/2 (4 seconds at voltage to obtain half the channel at Rest and half Inactivated) with a subsequent second test pulse (P2; 20 ms to -10 mV) to check for channels in the Inactivated State, followed by another brief recovery (20 ms to -120 mV) and a final third test pulse (P3; 20 ms to -10 mV) to check for recovered channels.
To check for frequency-dependent inhibition, a 10 Hz protocol and a 20 Hz protocol were applied; namely,
From a resting membrane potential of -120 mV, 40-pulses (10 ms to -10 mV) was applied at 10 Hz (at 100 ms between pulses) and then at 20 Hz (at 50 ms between pulses).
Each parameter was recorded (P1, P2, P3, P40 from 10Hz and P40 from 20Hz) during a control period (lasting ~ 5 minutes) when establishing the baseline and during compound period (lasting ~ 12 minutes) when test compound (or vehicle) was applied. For each parameter, the value at the end of the compound period was normalized to the vehicle baseline; as follows Normalized Inhibition (NormCPD) = (CPD Valueend CPD period)/(VEH Valueend Control Period) [formula]
To adjust for any variance in the Na^+ current signal during the compound period (owing to cumulative inactivation independent of compound or shifts in biophysics over time), a dedicated segment of the recording wells in each 384 plate were dedicated to having only vehicle exposure. These vehicle-only recordings were used to correct for any apparent "run-up" or "run-down" in the experiment. Normalized Inhibition (NormVEH) = (VEH Valueend CPD period)/(VEH Valueend Control Period) [formula]
The adjusted inhibition was calculated as follows: % Inhibitioncorrected = 100 × (NormCPD −NormVEH)/(100−NormVEH) [formula]
Percent inhibition was determined and IC50 values were calculated using a 4 parameter logistic model within XLFit Software (IDBS, Boston MA): % Inhibitioncorrected = A + ((B−A))/((1 + (((x)/(C)))^D) [formula] where A and B are the maximal and minimum inhibition respectively, C is the IC50 concentration and D is the (Hill) slope.

T1 sequence (Q9Y5Y9 whole entry): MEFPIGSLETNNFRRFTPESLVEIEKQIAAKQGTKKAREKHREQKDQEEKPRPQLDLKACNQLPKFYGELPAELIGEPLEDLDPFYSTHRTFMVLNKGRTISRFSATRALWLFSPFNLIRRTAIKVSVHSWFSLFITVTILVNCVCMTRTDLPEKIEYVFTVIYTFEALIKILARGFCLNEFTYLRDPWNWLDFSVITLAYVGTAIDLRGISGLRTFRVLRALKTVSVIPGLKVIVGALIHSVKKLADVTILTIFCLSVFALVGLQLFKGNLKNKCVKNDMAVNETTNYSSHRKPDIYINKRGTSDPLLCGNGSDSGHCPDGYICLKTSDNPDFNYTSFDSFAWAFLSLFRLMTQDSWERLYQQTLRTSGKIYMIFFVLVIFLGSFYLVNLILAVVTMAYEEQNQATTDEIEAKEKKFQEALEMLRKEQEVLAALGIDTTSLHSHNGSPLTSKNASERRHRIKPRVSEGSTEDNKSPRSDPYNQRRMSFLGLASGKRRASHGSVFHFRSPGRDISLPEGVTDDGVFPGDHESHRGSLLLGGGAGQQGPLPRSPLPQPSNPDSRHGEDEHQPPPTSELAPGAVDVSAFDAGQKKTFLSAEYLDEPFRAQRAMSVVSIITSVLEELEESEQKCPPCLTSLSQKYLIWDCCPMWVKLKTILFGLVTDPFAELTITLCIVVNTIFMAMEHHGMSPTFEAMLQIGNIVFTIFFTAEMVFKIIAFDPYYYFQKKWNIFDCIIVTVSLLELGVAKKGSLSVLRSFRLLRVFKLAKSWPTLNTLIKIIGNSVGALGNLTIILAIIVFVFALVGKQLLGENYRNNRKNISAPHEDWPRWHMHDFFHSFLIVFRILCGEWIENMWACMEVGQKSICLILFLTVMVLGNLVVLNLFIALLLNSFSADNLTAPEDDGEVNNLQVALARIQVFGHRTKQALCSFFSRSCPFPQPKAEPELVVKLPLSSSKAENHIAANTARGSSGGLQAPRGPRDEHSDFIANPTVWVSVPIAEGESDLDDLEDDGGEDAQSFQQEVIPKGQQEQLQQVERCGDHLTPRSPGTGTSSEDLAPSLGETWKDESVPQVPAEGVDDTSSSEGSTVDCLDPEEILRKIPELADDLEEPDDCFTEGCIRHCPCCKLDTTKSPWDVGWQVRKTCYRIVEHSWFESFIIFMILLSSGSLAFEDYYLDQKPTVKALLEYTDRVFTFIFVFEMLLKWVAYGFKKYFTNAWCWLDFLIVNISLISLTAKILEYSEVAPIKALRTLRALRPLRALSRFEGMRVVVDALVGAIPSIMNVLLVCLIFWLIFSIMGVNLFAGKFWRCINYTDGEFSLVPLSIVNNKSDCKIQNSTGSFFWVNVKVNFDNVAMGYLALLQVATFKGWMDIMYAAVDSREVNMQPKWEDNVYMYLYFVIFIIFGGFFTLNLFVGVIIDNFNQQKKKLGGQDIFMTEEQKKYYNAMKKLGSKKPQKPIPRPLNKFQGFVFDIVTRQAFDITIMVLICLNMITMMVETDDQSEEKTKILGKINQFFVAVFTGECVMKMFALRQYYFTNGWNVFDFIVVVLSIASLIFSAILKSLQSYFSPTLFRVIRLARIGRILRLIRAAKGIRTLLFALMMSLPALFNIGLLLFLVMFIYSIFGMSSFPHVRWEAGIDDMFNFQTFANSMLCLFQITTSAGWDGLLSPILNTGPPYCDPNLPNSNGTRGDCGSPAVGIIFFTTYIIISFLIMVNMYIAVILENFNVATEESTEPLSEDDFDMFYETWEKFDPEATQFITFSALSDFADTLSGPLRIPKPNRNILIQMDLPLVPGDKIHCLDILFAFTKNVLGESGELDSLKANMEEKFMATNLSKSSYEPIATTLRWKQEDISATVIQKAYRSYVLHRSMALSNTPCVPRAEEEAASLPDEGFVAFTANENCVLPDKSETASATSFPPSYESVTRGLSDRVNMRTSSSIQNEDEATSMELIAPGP
T1 sequence (Q9NY72 23-215 partner): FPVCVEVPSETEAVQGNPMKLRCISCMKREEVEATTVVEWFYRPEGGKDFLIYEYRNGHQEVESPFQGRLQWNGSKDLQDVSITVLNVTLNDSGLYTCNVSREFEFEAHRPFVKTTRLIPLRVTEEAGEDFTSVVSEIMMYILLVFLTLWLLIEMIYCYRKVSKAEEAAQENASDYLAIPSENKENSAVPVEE

Row | SMILES | IC50
1 | O=C(Nc1ccnc(O)c1)c1c2ccccc2nn1CC1CCCCCC1 [SC-13, 2-(cyclohcptylmethyl)-N-(2-hydroxypyridin-4-yl)indazole-3-carboxamide] | 0.1 to 1 µM
2 | O=C(Nc1ccnc(O)c1)c1c2ccccc2nn1CC1CCOC1 (centres unmarked) [SC-50, N-(2-hydroxypyridin-4-yl)-2-(oxolan-3-ylmethyl)indazole-3-carboxamide] | 1 to 10 µM
3 | CS(=O)(=O)c1cccc(NC(=O)c2c3ccccc3nn2CC2CCCCC2)c1 [SC-37, 2-(cyclohexylmethyl)-N-(3-methylsulfonylphenyl)indazole-3-carboxamide] | ≤ 0.1 µM
4 | CS(=O)(=O)c1cc(NC(=O)c2c3ccccc3nn2CC2CCCCC2)ccc1F [SC-77, 2-(cyclohexylmethyl)-N-(4-fluoro-3-methylsulfonylphenyl)indazole-3-carboxamide] | ≤ 0.1 µM
5 | CS(=O)(=O)c1cccc(NC(=O)c2c3ccccc3nn2CC2CCOC2)c1 (centres unmarked) [SC-56, N-(3-methylsulfonylphenyl)-2-(oxolan-3-ylmethyl)indazole-3-carboxamide] | 1 to 10 µM
6 | O=C(Nc1ccnc(O)c1)c1c2cccc(F)c2nn1CC1CCCCC1 [SC-20, 2-(cyclohexylmethyl)-7-fluoro-N-(2-hydroxypyridin-4-yl)indazole-3-carboxamide] | 0.1 to 1 µM
7 | O=C(Nc1ccnc(O)c1)c1c2ccccc2nn1CC1CCCCO1 (centres unmarked) [SC-53, N-(2-hydroxypyridin-4-yl)-2-(oxan-2-ylmethyl)indazole-3-carboxamide] | 1 to 10 µM
8 | C[S+]([O-])c1cccc(NC(=O)c2c3ccc(F)cc3nn2CC2CCCCC2)c1 (centres unmarked) [SC-19, 2-(cyclohexylmethyl)-6-fluoro-N-(3-(methylsulfinyl)phenyl)-2H-indazole-3-carboxamide] | 0.1 to 1 µM
9 | Cc1cccc2c(C(=O)Nc3cccc(S(C)(=O)=O)c3)n(CC3CCCCC3)nc12 [SC-45, 2-(cyclohexylmethyl)-7-methyl-N-(3-methylsulfonylphenyl)indazole-3-carboxamide] | ≤ 0.1 µM
10 | Cc1cccc2c(C(=O)Nc3ccnc(S(N)(=O)=O)c3)n(C[C@H]3CCCCO3)nc12 (single isomer, unassigned) [SC-88b] | ≤ 0.1 µM
11 | NS(=O)(=O)c1cc(NC(=O)c2c3ccc(F)cc3nn2CC2CCCCC2)ccn1 [SC-87, 2-(cyclohexylmethyl)-6-fluoro-N-(2-sulfamoylpyridin-4-yl)-2H-indazole-3-carboxamide] | ≤ 0.1 µM
12 | CS(=O)(=O)c1cccc(NC(=O)c2c3ccccc3nn2CC2CCCCO2)c1 (centres unmarked) [SC-58, N-(3-methylsulfonylphenyl)-2-(oxan-2-ylmethyl)indazole-3-carboxamide] | 0.1 to 1 µM
13 | NC(=O)c1cccc(NC(=O)c2c3ccc(F)cc3nn2CC2CCC(F)(F)CC2)c1 [SC-76, N-(3-Carbamoylphenyl)-2-[(4,4-difluorocyclohexyl)methyl]-6-fluoro-2H-indazole-3-carboxamide] | 0.1 to 1 µM
14 | CS(=O)(=O)c1cccc(NC(=O)c2c3cccc(C(F)(F)F)c3nn2CC2CCCCC2)c1 [SC-44, 2-(cyclohexylmethyl)-N-(3-methylsulfonylphenyl)-7-(trifluoromethyl)indazole-3-carboxamide] | ≤ 0.1 µM
15 | NS(=O)(=O)c1cccc(NC(=O)c2c3ccc(F)cc3nn2CC2CCC(F)(F)CC2)c1 [SC-38, 2-[(4,4-difluorocyclohexyl)methyl]-6-fluoro-N-(3-sulfamoylphenyl)indazole-3-carboxamide] | ≤ 0.1 µM
16 | CS(=O)(=O)c1cccc(NC(=O)c2c3ccc(F)cc3nn2CC2CCCCC2)c1 [SC-11, 2-(cyclohexylmethyl)-6-fluoro-N-(3-methylsulfonylphenyl)indazole-3-carboxamide] | ≤ 0.1 µM

Row | SMILES | IC50
17 | CS(=O)(=O)n1cc(NC(=O)c2c3ccccc3nn2CC2CCCCC2)cn1 [SC-36, 2-(cyclohexylmethyl)-N-(1-(methylsulfonyl)-1H-pyrazol-4-yl)-2H-indazole-3-carboxamide] | 0.1 to 1 µM
18 | Cn1ccc(NC(=O)c2c3ccccc3nn2CC2CCCCC2)cc1=O [SC-39, 2-(cyclohexylmethyl)-N-(1-methyl-2-oxo-1,2-dihydropyridin-4-yl)-2H-indazole-3-carboxamide] | 1 to 10 µM
19 | Cc1cccc2nn(CC3CCCCC3)c(C(=O)Nc3cccc(S(C)(=O)=O)c3)c12 [SC-83, 2-(cyclohexylmethyl)-4-methyl-N-(3-(methylsulfonyl)phenyl)-2H-indazole-3-carboxamide] | ≤ 0.1 µM
20 | NC(=O)c1cc(NC(=O)c2c3ccc(F)cc3nn2CC2CCCCC2)ccn1 [SC-86, N-(2-carbamoylpyridin-4-yl)-2-(cyclohexylmethyl)-6-fluoro-2H-indazole-3-carboxamide] | ≤ 0.1 µM
21 | O=C(Nc1ccnc(O)c1)c1c2ccc(F)cc2nn1CC1CCCCO1 (centres unmarked) [SC-71, 6-fluoro-N-(2-hydroxypyridin-4-yl)-2-[[oxan-2-yl]methyl]indazole-3-carboxamide] | 1 to 10 µM
22 | NS(=O)(=O)c1cccc(NC(=O)c2c3cccc(C4CC4)c3nn2CC2CCOCC2)c1 [SC-85, 7-cyclopropyl-N-(3-sulfamoylphenyl)-2-((tetrahydro-2H-pyran-4-yl)methyl)-2H-indazole-3-carboxamide] | ≤ 0.1 µM
23 | CS(=O)(=O)c1cccc(NC(=O)c2c3ccc(F)cc3nn2CCC2CCCC2)c1 [SC-61, 2-(2-cyclopentylethyl)-6-fluoro-N-(3-methylsulfonylphenyl)indazole-3-carboxamide] | 0.1 to 1 µM
24 | O=C(Nc1ccnc(O)c1)c1c2c(F)cccc2nn1CC1CCCCC1 [SC-49, 2-(cyclohexylmethyl)-4-fluoro-N-(2-hydroxypyridin-4-yl)indazole-3-carboxamide] | 0.1 to 1 µM
25 | CS(=O)(=O)c1cccc(NC(=O)c2c3ccc(F)cc3nn2CC2CCOCC2)c1 [SC-60, 6-fluoro-N-(3-methylsulfonylphenyl)-2-(oxan-4-ylmethyl)indazole-3-carboxamide] | 0.1 to 1 µM
26 | CC1(C)CC(Cn2nc3cc(F)ccc3c2C(=O)Nc2cccc(S(C)(=O)=O)c2)C1 [SC-68, 2-[(3,3-dimethylcyclobutyl)methyl]-6-fluoro-N-(3-methylsulfonylphenyl)indazole-3-carboxamide] | ≤ 0.1 µM
27 | O=C(Nc1ccnc(O)c1)c1c2ccccc2nn1CC1CCCC1 [SC-73, 2-(cyclopentylmethyl)-N-(2-hydroxypyridin-4-yl)indazole-3-carboxamide] | 0.1 to 1 µM
28 | NS(=O)(=O)c1cccc(NC(=O)c2c3ccc(F)cc3nn2CC2CCCCC2)c1 [SC-28, 2-(cyclohexylmethyl)-6-fluoro-N-(3-sulfamoylphenyl)indazole-3-carboxamide] | ≤ 0.1 µM
29 | NC(=O)c1cc(NC(=O)c2c3ccccc3nn2CC2CCC(F)(F)CC2)ccc1F [SC-25, N-(3-carbamoyl-4-fluorophenyl)-2-[(4,4-difluorocyclohexyl)methyl]indazole-3-carboxamide] | 0.1 to 1 µM
30 | NC(=O)c1cc(NC(=O)c2c3ccccc3nn2CC2CCOCC2)ccc1F [SC-21, N-(3-Carbamoyl-4-fluorophenyl)-2-((tetrahydro-2H-pyran-4-yl)methyl)-2H-indazole-3-carboxamide] | 1 to 10 µM
31 | NS(=O)(=O)c1cc(NC(=O)c2c3cccc(C(F)F)c3nn2C[C@H]2CCCCO2)ccn1 [SC-89b] | ≤ 0.1 µM
32 | Cc1cccc2c(C(=O)Nc3cc[nH]c(=O)c3)n(CC3CCCCC3)nc12 [SC-43, 2-(cyclohexylmethyl)-7-methyl-N-(2-oxo-1,2-dihydropyridin-4-yl)-2H-indazole-3-carboxamide] | ≤ 0.1 µM
